Measured values reported in patent publication US11578062B2, “Solid forms of (R)-1(2,2-difluorobenzo[d][1,3]dioxol-5-yl)-N-(1-(2,3-dihydroxypropyl)-6-fluoro-2-(1-hydroxy-2-methylpropan-2-yl)-1H-indol-5-yl)cyclopropanecarboxamide” (Vertex Pharmaceuticals Incorporated, priority 2010, dated 2023).

Biological target: T1, ΔF508-CFTR (Homo sapiens, UniProt P13569, DEL508-508)
T1 construct: expressed in transfected cells
Test: Membrane potential optical assay for ΔF508-CFTR correction (FRET voltage-sensor dyes, VIPR)
Type: cell-based
Details: PercentActivity; NIH3T3 mouse fibroblasts stably expressing ΔF508-CFTR; procedures described above
Description: Assays for Detecting and Measuring ΔF508-CFTR Correction Properties of Compounds
Membrane potential optical methods for assaying ΔF508-CFTR modulation properties of compounds
The optical membrane potential assay utilized voltage-sensitive FRET sensors described by Gonzalez and Tsien (See, Gonzalez, J. E. and R. Y. Tsien (1995) “Voltage sensing by fluorescence resonance energy transfer in single cells” Biophys J 69(4): 1272-80, and Gonzalez, J. E. and R. Y. Tsien (1997) “Improved indicators of cell membrane potential that use fluorescence resonance energy transfer” Chem Biol 4(4): 269-77) in combination with instrumentation for measuring fluorescence changes such as the Voltage/Ion Probe Reader (VIPR) (See, Gonzalez, J. E., K. Oades, et al. (1999) “Cell-based assays and instrumentation for screening ion-channel targets” Drug Discov Today 4(9): 431-439).
These voltage sensitive assays are based on the change in fluorescence resonant energy transfer (FRET) between the membrane-soluble, voltage-sensitive dye, DiSBAC2(3), and a fluorescent phospholipid, CC2-DMPE, which is attached to the outer leaflet of the plasma membrane and acts as a FRET donor. […] The changes in fluorescence emission were monitored using VIPR™ II, which is an integrated liquid handler and fluorescent detector designed to conduct cell-based screens in 96- or 384-well microtiter plates. […]

T1 sequence (P13569 with tags, fused parts or gaps DEL508-508): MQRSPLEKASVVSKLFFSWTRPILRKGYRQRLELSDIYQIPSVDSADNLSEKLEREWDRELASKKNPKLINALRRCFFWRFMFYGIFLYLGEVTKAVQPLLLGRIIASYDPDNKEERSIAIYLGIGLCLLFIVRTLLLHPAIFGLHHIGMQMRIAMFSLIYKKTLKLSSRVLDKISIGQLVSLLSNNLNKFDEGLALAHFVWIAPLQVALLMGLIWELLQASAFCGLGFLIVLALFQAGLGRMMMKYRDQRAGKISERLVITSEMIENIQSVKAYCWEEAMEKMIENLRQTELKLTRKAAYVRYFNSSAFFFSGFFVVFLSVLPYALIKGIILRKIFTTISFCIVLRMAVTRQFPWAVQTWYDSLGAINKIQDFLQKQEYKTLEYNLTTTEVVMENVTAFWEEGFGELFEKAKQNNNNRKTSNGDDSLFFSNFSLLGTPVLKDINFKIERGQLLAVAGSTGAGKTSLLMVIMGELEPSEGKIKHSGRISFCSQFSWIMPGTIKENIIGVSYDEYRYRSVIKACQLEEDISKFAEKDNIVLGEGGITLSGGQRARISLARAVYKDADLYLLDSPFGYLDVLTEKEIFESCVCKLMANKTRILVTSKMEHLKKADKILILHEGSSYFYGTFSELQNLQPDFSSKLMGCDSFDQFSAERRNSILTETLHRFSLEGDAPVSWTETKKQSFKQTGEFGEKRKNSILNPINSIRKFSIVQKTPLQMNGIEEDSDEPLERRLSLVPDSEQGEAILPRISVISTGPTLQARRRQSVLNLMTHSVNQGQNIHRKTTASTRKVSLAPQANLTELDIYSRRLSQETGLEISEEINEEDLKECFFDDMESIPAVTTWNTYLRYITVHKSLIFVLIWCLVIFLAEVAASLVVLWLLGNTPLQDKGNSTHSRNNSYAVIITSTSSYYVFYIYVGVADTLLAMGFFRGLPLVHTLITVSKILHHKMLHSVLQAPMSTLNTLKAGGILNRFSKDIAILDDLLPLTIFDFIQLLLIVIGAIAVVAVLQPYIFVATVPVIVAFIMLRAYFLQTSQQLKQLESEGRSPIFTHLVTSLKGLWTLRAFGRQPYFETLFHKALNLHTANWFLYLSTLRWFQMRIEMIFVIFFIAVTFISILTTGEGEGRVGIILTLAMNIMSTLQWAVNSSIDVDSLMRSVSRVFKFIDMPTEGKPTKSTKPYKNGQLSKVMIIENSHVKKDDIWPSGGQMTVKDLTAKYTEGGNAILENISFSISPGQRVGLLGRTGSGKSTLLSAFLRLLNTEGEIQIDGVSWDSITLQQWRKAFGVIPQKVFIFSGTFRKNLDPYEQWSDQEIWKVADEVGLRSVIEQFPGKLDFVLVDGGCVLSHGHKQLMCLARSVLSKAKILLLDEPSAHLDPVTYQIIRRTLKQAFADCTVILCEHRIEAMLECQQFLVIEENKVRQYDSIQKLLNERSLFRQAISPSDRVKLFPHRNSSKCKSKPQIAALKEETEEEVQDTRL

**Q.** CC(C)(CO)c1cc2cc(NC(=O)C3(c4ccc5c(c4)OC(F)(F)O5)CC3)c(F)cc2n1C[C@@H](O)CO [Compound 1, (R)-1-(2,2-difluorobenzo[d][1,3]dioxol-5-yl)-N-(1-(2,3-dihydroxypropyl)-6-fluoro-2-(1-hydroxy-2-methylpropan-2-yl)-1H-indol-5-yl)cyclopropanecarboxamide] was tested. Which BinnedMaxEfficacy did it give?
**A.** +++ (PercentActivity Bins: + <= 25.0 < ++ <= 100.0 < +++)
